Assay results published in patent US11667656B2, “Crystalline forms of Tenofovir alafenamide” (Apotex Inc., priority 2021, dated 2023).
Where a name gives a salt, the structure may show the parent alone.

What was measured:
[1] = Wood apparatus, bath 37° C., 900 mL distilled water, 50 rpm, compressed 200-400 mg samples
Method: Intrinsic dissolution rate (IDR) measurements were performed using a Wood apparatus (Pharma Test PT-DT8 instrument) having a bath temperature of 37° C. Samples were prepared by compressing 200-400 mg samples at 1.5 metric tons for 1 minute. A dissolution medium consisting of 900 mL distilled water, and rotation speed of 50 rpm, was used for each experiment.

[2] = reported; cited from earlier work
[3] = rats; in comparison to tenofovir alafenamide hemifumarate; CN 105237571 B; cited from earlier work
[4] = CDER review, NDA 207561; cited from earlier work

CC(C)OC(=O)[C@H](C)N[P@](=O)(CO[C@H](C)Cn1cnc2c(N)ncnc21)Oc1ccccc1 [Tenofovir alafenamide fumarate (1:1), Tenofovir alafenamide fumarate]
Intrinsic Dissolution Rate [1]: 0.87 mg min^−1 cm^−2

Tenofovir alafenamide succinate [Tenofovir alafenamide succinate (1:1)]
Intrinsic Dissolution Rate [1]: 0.67 mg min^−1 cm^−2

CC(C)OC(=O)[C@H](C)N[P@](=O)(CO[C@H](C)Cn1cnc2c(N)ncnc21)Oc1ccccc1 [tenofovir alafenamide, L-alanine, N—[(S)-[[(1 R)-2-(6-amino-9H-purin-9-yl)-1-methylethoxy]methyl]phenoxyphosphinyl]-, 1-methylethyl ester]
bioavailability [2]: low

tenofovir alafenamide hemisuccinate
absorption (AUC) [3]: higher | maximum plasma concentration (Cmax) [3]: higher

tenofovir alafenamide hemifumarate
Biopharmaceutics Classification System (BCS) class [4]: Class III | solubility [4]: high
